One may read the pIC50 as −log10 of the IC50, conventionally taken in molar units. The inhibition is the change of the read-out against control, counted positive when it falls.

pIC50: −log10 of the molar value. The source made the active and inactive calls. No cut-off for these calls is given here. Some results are limits rather than exact numbers.

From ChEMBL document CHEMBL5608204, “Disulfide bond replacement with non-reducible side chain to tail macrolactamization for the development of potent and selective CXCR4 peptide antagonists endowed with flanking binding sites” (Eur J Med Chem, 2024) come the findings set out here.

Data set [1] has as its target T1, C-X-C chemokine receptor type 4 (Homo sapiens, UniProt P61073). The data set is described as follows: Antagonist activity at CXCR4 in human CCRF-CEM cells assessed as inhibition of anti-CXCR4 binding preincubated with compound for 45 mins followed by anti-CXCR4 PE antibody addition and measured after 30 mins by fluorescence based competitive binding assay. Format: functional, cell-based.

Data set [2] concerns the target T1, C-X-C chemokine receptor type 4. The data set is described as follows: Displacement of 125I-CXCL12 from CXCR4 in human CCRF-CEM cells measured after 1 hr by competitive binding assay. The data set is classed as cell-based. A general note: Loss of bound radioactivity is the signal in a displacement assay; it reports binding, not function.
Data set [3] has the same target. The experiment in a line: Antagonist activity at CXCR4 (unknown origin) transfected with CHO cells cotransfected with CXCR4-GFP assessed as inhibition of CXCL12 induced CXCR4 internalization at upto 1 uM preincubated for 45 mins followed by CXCL12 stimulation and measured after 30 to 90 mins by DAPI staining based microscopy analysis. The data set is classed as functional, cell-based. The note with it: time 75-135 min.

The target is the same in data set [4]. The data set is described as follows: Agonist activity at CXCR4 in human CEM cells assessed as induction of CXCR4 internalization at 0.1 to 1 uM incubated for 45 mins by flow cytometry analysis. Format: functional, cell-based. The note with it: dose 0.1-1 µM.
The subject of data set [5] is CCRF-CEM. The data set is described as follows: Inhibition of CXCL12-induced cell migration in human CCRF-CEM cells measured after 6 hrs by DAPI staining based analysis. Format: functional. The note with it: dose 0.01-10 µM.
The target in data set [6] is T2, Atypical chemokine receptor 3 (Homo sapiens, UniProt P25106). The data set is described as follows: Inhibition of CXCR7 (unknown origin) overexpressing human MCF7 cells at upto 10 uM by flow cytometry analysis relative to control. Format: cell-based. (A flow cytometer gives signals particle by particle.)
Data set [7] in a line: Stability of the compound assessed as parent compound remaining in PBS buffer at pH 7.4 at 10 uM measured upto 8 hr in presence of glutathione by RP-HPLC analysis. Format: physicochemical. To be noted: pH 7.4, 8 h.
Data set [8] addresses T2, Atypical chemokine receptor 3. The data set is described as follows: Binding affinity to CXCR7 (unknown origin) overexpressing human MCF7 cells by flow cytometry analysis. The data set is classed as cell-based.
The target in data set [9] is T1, C-X-C chemokine receptor type 4. The experiment in a line: Agonist activity at CXCR4 (unknown origin) transfected with CHO cells cotransfected with CXCR4-GFP assessed as induction of CXCR4 internalization at 0.1 to 1 uM incubated for 45 mins by DAPI staining based microscopy analysis. Format: functional, cell-based. To be noted: dose 0.1-1 µM.
For data set [10] the target is unchanged. The data set is described as follows: Antagonist activity at CXCR4 in human CEM cells assessed as inhibition of CXCL12-induced CXCR4 internalization at 0.1 to 1 uM preincubated for 45 mins followed by CXCL12 stimulation and measured after 30 mins by flow cytometry analysis. The data set is classed as functional, cell-based. The note with it: filed as antagonist, dose 0.1-1 µM, time 75.0 min.

Data set [11] deals with T2, Atypical chemokine receptor 3. The experiment in a line: Binding affinity to CXCR7 (unknown origin) overexpressing human MCF7 cells at upto 10 uM by flow cytometry analysis. Format: cell-based.
The test system of data set [12] is CCRF-CEM. The experiment in a line: Inhibition of CXCL12-induced cell migration in human CCRF-CEM cells at 0.01 to 10 uM measured after 6 hrs by DAPI staining based analysis. The data set is classed as functional. To be noted: dose 0.01-10 µM.
Data set [13] in a line: Stability of the compound assessed as parent compound remaining in PBS buffer at pH 7.4 at 10 uM measured after 1 hr in presence of glutathione by RP-HPLC analysis. The data set is classed as physicochemical. The note with it: PBS buffer with glutathione, read-out: Stability.
Data set [14] in a line: Stability of the compound assessed as parent compound remaining in PBS buffer at pH 7.4 at 10 uM measured after 8 hr in presence of glutathione by RP-HPLC analysis. The data set is classed as physicochemical. To be noted: PBS buffer with glutathione, read-out: Stability.

T2 sequence (P25106 whole entry): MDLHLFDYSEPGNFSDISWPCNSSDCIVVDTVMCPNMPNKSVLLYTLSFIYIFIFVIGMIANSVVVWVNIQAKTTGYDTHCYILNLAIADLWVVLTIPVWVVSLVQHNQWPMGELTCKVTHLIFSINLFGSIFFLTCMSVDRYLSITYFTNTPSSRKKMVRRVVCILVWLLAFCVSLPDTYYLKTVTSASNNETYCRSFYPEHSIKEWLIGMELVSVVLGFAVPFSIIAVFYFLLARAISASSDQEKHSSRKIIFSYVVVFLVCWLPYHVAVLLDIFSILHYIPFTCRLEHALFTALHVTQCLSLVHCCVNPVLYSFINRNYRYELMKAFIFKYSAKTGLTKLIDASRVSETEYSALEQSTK
T1 sequence (P61073 whole entry): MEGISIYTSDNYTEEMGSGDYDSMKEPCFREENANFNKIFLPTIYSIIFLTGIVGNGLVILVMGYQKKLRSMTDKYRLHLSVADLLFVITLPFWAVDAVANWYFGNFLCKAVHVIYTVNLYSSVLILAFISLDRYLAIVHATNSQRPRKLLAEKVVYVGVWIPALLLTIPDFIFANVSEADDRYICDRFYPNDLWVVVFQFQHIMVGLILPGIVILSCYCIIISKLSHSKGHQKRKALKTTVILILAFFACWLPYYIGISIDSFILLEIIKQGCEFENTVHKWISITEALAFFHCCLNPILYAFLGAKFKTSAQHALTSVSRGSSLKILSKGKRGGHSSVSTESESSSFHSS

Take `CC(=O)N[C@@H](CCCNC(=N)N)C(=O)N[C@@H](C)C(=O)N[C@@H]1CCCCNC(=O)[C@H](CC(=O)O)NC(=O)[C@H](Cc2c[nH]cn2)NC(=O)[C@H](Cc2ccc3ccccc3c2)NC(=O)[C@H](CCCNC(=N)N)NC1=O`: the negative logarithm of the IC50 (pIC50) in [1] (ccrf-cem) is 5.77.
In data set [2] (ccrf-cem), `CC(=O)N[C@@H](CCCNC(=N)N)C(=O)N[C@@H](C)C(=O)N[C@@H]1Cn2cc(nn2)C[C@@H](C(=O)O)NC(=O)[C@H](Cc2c[nH]cn2)NC(=O)[C@H](Cc2ccc3ccccc3c2)NC(=O)[C@H](CCCNC(=N)N)NC1=O` gave a pIC50 of 7.44.
As for `CC(=O)N[C@@H](CCCNC(=N)N)C(=O)N[C@@H](C)C(=O)N[C@@H]1CNC(=O)[C@H](CCC(N)=O)NC(=O)[C@H](Cc2c[nH]cn2)NC(=O)[C@H](Cc2ccc3ccccc3c2)NC(=O)[C@H](CCCNC(=N)N)NC1=O`, the pIC50 in [1] (ccrf-cem) is 6.61.
Same read-out and setting: the figure for `CC(=O)N[C@@H](CCCNC(=N)N)C(=O)N[C@@H](C)C(=O)N[C@@H]1CCNC(=O)[C@H](CCC(=O)O)NC(=O)[C@H](Cc2c[nH]cn2)NC(=O)[C@H](Cc2ccc3ccccc3c2)NC(=O)[C@H](CCCNC(=N)N)NC1=O` is 6.11.
In data set [2] (ccrf-cem), `CC(=O)N[C@@H](CCCNC(=N)N)C(=O)N[C@@H](C)C(=O)N[C@@H]1CCn2nncc2C[C@@H](C(=O)O)NC(=O)[C@H](Cc2c[nH]cn2)NC(=O)[C@H](Cc2ccc3ccccc3c2)NC(=O)[C@H](CCCNC(=N)N)NC1=O` had a pIC50 of 7.52.
Consider `CC(=O)N[C@@H](CCCNC(=N)N)C(=O)N[C@@H](C)C(=O)N[C@@H]1CNC(=O)[C@@H](CC(=O)O)NC(=O)[C@H](Cc2c[nH]cn2)NC(=O)[C@H](Cc2ccc3ccccc3c2)NC(=O)[C@H](CCCNC(=N)N)NC1=O`, for which the negative-log IC50 (pIC50) in data set [1] was 7.00.
In the case of `CC(=O)N[C@@H](CCCNC(=N)N)C(=O)N[C@@H](C)C(=O)N[C@@H]1CNC(=O)[C@H](Cc2ccccc2)NC(=O)[C@H](Cc2c[nH]cn2)NC(=O)[C@H](Cc2ccc3ccccc3c2)NC(=O)[C@H](CCCNC(=N)N)NC1=O`, the pIC50 in [1] (ccrf-cem) was 6.46.
In the case of `CC(=O)N[C@@H](CCCNC(=N)N)C(=O)N[C@@H](C)C(=O)N[C@@H]1CNC(=O)[C@H](CCC(=O)O)NC(=O)[C@H](Cc2c[nH]cn2)NC(=O)[C@H](Cc2ccc3ccccc3c2)NC(=O)[C@H](CCCNC(=N)N)NC1=O`, the pIC50 in [1] is < 5.00.
Turning to `CC(=O)N[C@@H](CCCNC(=N)N)C(=O)N[C@@H](C)C(=O)N[C@H]1CNC(=O)[C@@H](CCC(=O)O)NC(=O)[C@H](Cc2c[nH]cn2)NC(=O)[C@H](Cc2ccc3ccccc3c2)NC(=O)[C@H](CCCNC(=N)N)NC1=O`, the outcome in [3], in data set [4] and in [9] was inactive. The inhibition result in [5] is “Dose-Dependent Effect”; in data set [6] it was 37%. Also, the pIC50 in data set [1] was 7.30; in data set [8], < 5.00; in [2], 7.32. Further, in data set [7], the Stability result is reported as “Stable”.
In the case of `CC(=O)N[C@@H](CCCNC(=N)N)C(=O)N[C@@H](C)C(=O)N[C@@H]1CCCNC(=O)[C@H](CC(=O)O)NC(=O)[C@H](Cc2c[nH]cn2)NC(=O)[C@H](Cc2ccc3ccccc3c2)NC(=O)[C@H](CCCNC(=N)N)NC1=O`, the pIC50 in data set [1] (ccrf-cem) is 6.02.
Take `CC(=O)N[C@@H](CCCNC(=N)N)C(=O)N[C@@H](C)C(=O)N[C@@H]1CSSC(C)(C)[C@H](C(=O)O)NC(=O)[C@H](Cc2c[nH]cn2)NC(=O)[C@H](Cc2ccc3ccccc3c2)NC(=O)[C@H](CCCNC(=N)N)NC1=O`: the outcome in [4], in data set [9] and in data set [11] was inactive. Also, the result in data set [10] was Active. Besides, the inhibition result in data set [12] was “Active”.
With `CC(=O)N[C@@H](CCCNC(=N)N)C(=O)N[C@@H](C)C(=O)N[C@@H]1CCCNC(=O)[C@H](CCC(=O)O)NC(=O)[C@H](Cc2c[nH]cn2)NC(=O)[C@H](Cc2ccc3ccccc3c2)NC(=O)[C@H](CCCNC(=N)N)NC1=O`, the negative-log IC50 (pIC50) in data set [1] (ccrf-cem) was < 5.00.
Still for that read-out and setting: the same measure for `CC(=O)N[C@@H](CCCNC(=N)N)C(=O)N[C@@H](C)C(=O)N[C@@H]1CCNC(=O)[C@H](CC(=O)O)NC(=O)[C@H](Cc2c[nH]cn2)NC(=O)[C@H](Cc2ccc3ccccc3c2)NC(=O)[C@H](CCCNC(=N)N)NC1=O`: 6.70; for `CC(=O)N[C@@H](CCCNC(=N)N)C(=O)N[C@@H](C)C(=O)N[C@@H]1CCCCNC(=O)[C@H](CCC(=O)O)NC(=O)[C@H](Cc2c[nH]cn2)NC(=O)[C@H](Cc2ccc3ccccc3c2)NC(=O)[C@H](CCCNC(=N)N)NC1=O`: < 5.00.
For `CC(=O)N[C@@H](CCCNC(=N)N)C(=O)N[C@@H](C)C(=O)N[C@@H]1CSSC(C)(C)[C@@H](C(=O)O)NC(=O)[C@H](Cc2cnc[nH]2)NC(=O)[C@H](Cc2ccc3ccccc3c2)NC(=O)[C@H](CCCNC(=N)N)NC1=O`, the remaining at 1 h, 10 µM in data set [13] is ~88%. Also, the pIC50 is 9.00 in [1] and 8.33 in data set [2]. The remaining at 8 h, 10 µM in data set [14] was ~52%.
Turning to `CC(=O)N[C@@H](CCCNC(=N)N)C(=O)N[C@@H](C)C(=O)N[C@@H]1CNC(=O)[C@H](CCC(C)C)NC(=O)[C@H](Cc2c[nH]cn2)NC(=O)[C@H](Cc2ccc3ccccc3c2)NC(=O)[C@H](CCCNC(=N)N)NC1=O`, the pIC50 in [1] (ccrf-cem) is 6.95.
In the case of `CC(=O)N[C@@H](CCCNC(=N)N)C(=O)N[C@@H](C)C(=O)N[C@H]1CNC(=O)[C@@H](CC(=O)O)NC(=O)[C@H](Cc2c[nH]cn2)NC(=O)[C@H](Cc2ccc3ccccc3c2)NC(=O)[C@H](CCCNC(=N)N)NC1=O`, the negative-log IC50 (pIC50) in data set [1] is 6.73.
